# Laboratory results: patent publication US11926826B2, “Twist signaling inhibitor compositions and methods of using the same” (City of Hope, priority 2016, dated 2024)
# [iaB] = inverted abasic ribose cap; [2sU] = 2-thio-2'-deoxyuridine; d = 2'-deoxy (DNA); m = 2'-O-methyl; r = 2'-OH (RNA)
# Legend:
# Ov8GFP-TWIST1 cells = experiment: SRB assay, cisplatin plus PI3K inhibitor LY294002; assay type: cell-based, human
# Protocol: Sulphorhodamine B assays. Cells were plated at 5,000 per well in normal medium in 96 well plates (100 μL/well), n=6 per drug concentration, per condition. Cells were allowed to adhere overnight, and then cisplatin was added. Cisplatin was prepared at 2× concentration in 100 μL normal medium, and then added to cells to yield 200 μL at 1×. Following 3 day incubation with cisplatin, medium was removed and cells were fixed with 10% trichloroacetic acid (TCA, 100 μL/well) at 4° C. for 1 hr. TCA was then removed and wells were rinsed with 200 μl water and allowed to air dry 10 min. […] Plates were air dried and excess SRB adhered to the walls of the wells was removed with a cotton swab. Finally, SRB was solubilized in 10 mM Tris base (200 μL/well) and absorbance was measured at 570 nm on a SpectraMax Plus plate reader (Molecular Devices, Sunnyvale, CA). Readings for each condition were normalized to untreated wells from the same condition. Cisplatin concentrations were adjusted to fit experimental demands. […] For Akt studies, the PI3K inhibitor LY294002 was used to inhibit Akt activation (FIGS. 25A-25D), and was obtained from Cell Signaling Technology (Danvers, MA).
# TWIST1 [1] = experiment: TWIST1 knockdown after Lipofectamine 2000 transfection of siRNA in MDA-MB-435S cells (western blot); assay type: cell-based, human; conditions: unmodified vs passenger-strand modified si419
# Protocol: Transient transfection of MDA-MB-435S GFP+ffluc was carried out using LIPOFECTAMINE® 2000 (Thermo Fisher Scientific, Waltham, MA) according to the manufacturer's instructions. LIPOFECTAMINE® 2000 transfection was used to confirm the functionality of the siRNA (si419 and si494) prior to testing their efficacy with MSNs. Transfection of siRNA with MSNs was carried out by incubating the MSNs with the siRNA overnight at 4° C. while rotating the tube constantly. The mixture consisted of 7 parts MSN (diluted to 500 ng/ul in sterile PBS) to 1 part siRNA (diluted to 10 uM). The final concentration for of MSNs and siRNA applied to cells was 17.5 ng/ul and 50 nM, respectively.
# Western Blot. Following siRNA treatment described above, cells were lifted from tissue culture wells with 0.25% trypsin, pelleted, and lysed in RIPA buffer. Protein concentration was determined using a BCA Assay (Thermo Fisher Scientific). A total of 30 μg of protein per lane was run on 4% stacking and 12% resolving polyacrylamide gels. Following gel electrophoresis, protein was transferred to Immobilon-P PVDF membrane (Millipore, Billerica, MA) using a Trans-Blot SD Semi-Dry Transfer Cell (Bio-Rad, Hercules, CA). Membranes were then blocked with 5% dry milk dissolved in 1×PBS with 0.1% Tween-20. Antibodies were diluted in blocking buffer (1:250 for anti-TWIST1 and 1:2,500 for anti-Actin). […]
# TWIST [2] = experiment: TWIST knockdown after MSN delivery of siRNA in ovarian cancer cell lines; assay type: cell-based
# Protocol: MSN design and delivery. Mesoporous silica nanoparticles (MSNs) were synthesized utilizing the sol-gel method as described previously. First, 250 mg 95% cetyltrimethylammonium bromide (CTAB) was dissolved in 120 ml of water with 875 μl 2M sodium hydroxide solution, at 80° C. Next, 1.2 ml of 98% tetraethylorthosilicate was added. After 15 min, 300 μl of 42% 3-(trihydroxysilyl) propyl methylphosphonate was added, and the mixture was stirred 2 hr. Particles were collected using centrifugation and washed with methanol. Acidic methanol was then used to remove any remaining CTAB surfactants. Zeta potential at 50 μg/mL was 43.75 mV [14]. All chemicals were obtained from Aldrich (St. Louis, MO). Particles were ˜120 nm in diameter, with 2.5 nm pores. Low molecular weight (1.8 kD branched polymer) polyethyleneimine (PEI) was electrostatically attached to the particle surface to provide a positive change to attract negatively charged siRNA [21]. To complex siRNA for in vitro experiments, 10 μl siRNA at 10 μM was mixed with 70 ul MSNs at 500 μg/ml and 20 μl water, and the mixture was incubated overnight at 4° C. on a roller. The following day, 100 μl of the MSN-siRNA complexes was added to each well of a 6-well plate containing 1900 μl normal medium.
# (§1) Western Blotting. Following siRNA treatment, cells were pelleted and lysed in RIPA buffer. Protein concentration was determined by BCA assay (Thermo Fisher). Following SDS-PAGE, protein was transferred to Amersham PVDF membrane (Genesee Scientific) using a BioRad Trans-Blot SD semi-dry transfer unit. Blots were then blocked in milk for one hour at room temperature or overnight at 4° C. Incubation with primary antibody took place for one hour at room temperature or overnight at 4° C. Antibodies were diluted in 5% milk, with 0.1-0.2% Tween-20. Antibodies used were TWIST 2c1a (Santa Cruz Biotechnology, Dallas, TX) at 1:250-1:500 dilution, β-Actin, A1978 (Sigma Aldrich, St. Louis, MO) at 1:2500-1:5000 dilution; and Horseradish Peroxidase (HRP) conjugated anti-mouse secondary antibodies. […]
# TWIST1 [3] = experiment: TWIST1 knockdown after Lipofectamine 2000 transfection in SUM 1315; assay type: cell-based, human
# Protocol: (§2) Cell Culture, Transfection, and Stable Cell Line Production. SUM 1315 breast cancer cells were obtained from ATCC (Manassas, VA). Cells were maintained at 37° C., 5% CO2, and 90% humidity in a tissue culture incubator. Media for SUM 1315 cells consisted of a 50-50 mixture of DMEM and F12 media, supplemented with 5 μg/ml insulin, 10 ng/ml EGF, 5% fetal bovine serum, and 1% penicillin/streptomycin. Cells were passaged using 0.25% trypsin (Genesee Scientific, San Diego, CA) every 2-3 days as they reached confluency. […]
# (§3) Quantitative PCR. […] RNA quantity and quality was measured and analyzed (with 260/280 nm and 260/230 nm spectra measurements) using a NanoDrop ND-1000 (Thermo Fisher Scientific, Waltham, MA). […] Quantitative RT-PCR was performed in quadruplicate using Maxima SYBR Green Master Mix (Thermo Fisher Scientific, Waltham, MA) in 25 μl reactions. […] Data were analyzed using Bio-Rad iQ5 software using the 2^−ΔΔ^Ct method and normalized to Actin. […]
# Western Blot. […] Cells were pelleted, lysed in RIPA buffer, and protein concentration was determined using the BCA Assay (Thermo Fisher Scientific, Waltham, MA). […]
# Vimentin mRNA = experiment: qPCR after YTZ3-15 delivery of siTwist in SUM 1315: Vimentin; assay type: cell-based, human; conditions: delivered via YTZ3-15; after one day
# Protocol: as §2, §3
# TWIST [4] = experiment: TWIST knockdown after YTZ3-15 delivery of siRNA in ovarian cancer cell lines; assay type: cell-based
# Protocol: PAMAM dendrimer design and delivery. The polyamidoamine (PAMAM) dendrimer used in this study is the […] third generation dendrimer, illustrated in FIG. 16A and previously described. To complex the dendrimer with siRNA, YTZ3-15 at 240 μM was mixed with […] in OptiMEM Low Serum Medium (Thermo Fisher). Upon complexing with siRNA, dendrimers form micelle structures with siRNA at the surface and the hydrophobic tails sequestered in the core (FIG. 16B). 14.6 μl YTZ3-15 and 10 μl siRNA were used per well of a 6-well plate. Final concentrations of YTZ3-15 and siRNA once added to cells were 1.75 μM and 50 nm, respectively. Where indicated, 3.5 μM YTZ3-15 and 100 nm siRNA were used for Ovcar8.
# Western Blotting. Following siRNA treatment, cells were pelleted and lysed in RIPA buffer. Protein concentration was determined by BCA assay (Thermo Fisher). Following SDS-PAGE, protein was transferred to Amersham PVDF membrane (Genesee Scientific) using a BioRad Trans-Blot SD semi-dry transfer unit. Blots were then blocked in milk for one hour at room temperature or overnight at 4° C. Incubation with primary antibody took place for one hour at room temperature or overnight at 4° C. Antibodies were diluted in 5% milk, with 0.1-0.2% Tween-20. Antibodies used were TWIST 2c1a (Santa Cruz Biotechnology, Dallas, TX) at 1:250-1:500 dilution, β-Actin, A1978 (Sigma Aldrich, St. Louis, MO) at 1:2500-1:5000 dilution; and Horseradish Peroxidase (HRP) conjugated anti-mouse secondary antibodies. For film-based westerns, Blue Devil film (Genesee Scientific) and ECL Plus chemiluminescent substrate (Thermo Fisher) were used to detect protein. For digital westerns, the Syngene Pxi4 digital blot imager and Michigan Diagnostics FemtoGlow chemilumescent substrate were used.
# TWIST [5] = experiment: TWIST knockdown after Lipofectamine 2000 transfection in A2780R (western blot); assay type: cell-based; conditions: over three days post transfection
# Protocol: Cell Culture. A2780R and all derivatives of Ovcar8 were grown in RPMI 1640 (Genesee Scientific, San Diego, CA) in a tissue culture incubator at 37° C., 5% CO2, and 90% humidity. Growth medium was supplemented with 10% fetal bovine serum and 1% penicillin/streptomycin. Cells were passaged every 2-4 days using 0.25% trypsin (Genesee Scientific). Where indicated, cells were transfected with Lipofectamine 2000 (Thermo Fisher, Waltham, MA) according to the manufacturer's instructions. A2780R cells are a cisplatin resistant derivative of A2780.
# as §1
# N-Cadherin mRNA = experiment: qPCR after YTZ3-15 delivery of siTwist in SUM 1315: N-Cadherin; assay type: cell-based, human; conditions: delivered via YTZ3-15; after seven days
# Protocol: as §2, §3
compound,measurement,setting,value
O=c1cc(N2CCOCC2)oc2c(-c3ccccc3)cccc12 [LY294002],greater cell death vs cisplatin alone,Ov8GFP-TWIST1 cells; combination with 5 μM cisplatin,15%
same,greater cell death vs cisplatin alone,Ov8GFP-TWIST1 cells; combination with 10 μM cisplatin,25%
"si419H: chemically modified si419 duplex: 2′-O-methyl and inverted abasic ribose on passenger strand (SEQ ID NO:11; guide SEQ ID NO:12) (sense GGACAAGCUGAGCAAGAUU; antisense AAUCUUGCUCAGCUUGUCCUU; siRNA; sense: sugars from the 5' end r17 m2, [iaB] at 5' end, 3' end, backbone not given here; antisense: sugars from the 5' end r16 d1 r4, [2sU] at 17, backbone not given here)","knockdown (efficiency, FIG. 6)",TWIST1 [1],approximately 80%
same,TWIST knockdown,"TWIST [2]; Ovcar8-IP, MSNs",robust knockdown of TWIST even after 24 hours
"si494: anti-TWIST siRNA; passenger 5′-GCGACGAGCUGGACUCCAA-3′ (SEQ ID No: 3), guide 5′-UUGGAGUCCAGCUCGUCGCUU-3′ (SEQ ID No: 4) (listed as RNA, chemistry not fully specified)",TWIST knockdown,"TWIST [2]; A2780R and Ovcar8, loaded onto MSNs",robust TWIST knockdown lasting one week post transfection
same,TWIST1 knockdown (protein and mRNA),TWIST1 [3],slightly more knockdown than siTwistA
same,Vimentin mRNA level,Vimentin mRNA,nearly undetectable
same,TWIST knockdown,TWIST [4]; A2780R,successfully knocked down TWIST
same,TWIST knockdown,"TWIST [4]; Ovcar8, double the usual dose (100 nM siRNA)",minimal
same,TWIST expression,TWIST [5],completely inhibit TWIST expression
same,N-Cadherin mRNA decrease,N-Cadherin mRNA,approximately 90%
